Reference: PubChem BioAssay (NCI)
Where “and” joins values, the source holds several entries; their conditions need not be identical. Equal values may be shown once.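 Step 1: Grow cells in 96-well plates. Step 2: Expose to compound for 48 hours at 5 concentrations. Step 3: Interpolate endpoints linearly; if unreached, use highest concentration. At the GI50, growth is halved. TGI marks complete inhibition of growth.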

Columns and labels:
Assay in all cases: DTP human tumour cell line panel, 48 h
LOX IMVI melanoma = system: LOX IMVI melanoma
MDA-MB-231 breast = system: MDA-MB-231 breast
U251 CNS = system: U251 CNS
OVCAR-8 ovarian = system: OVCAR-8 ovarian
SK-OV-3 ovarian = system: SK-OV-3 ovarian
SNB-78 CNS = system: SNB-78 CNS
SF-539 CNS = system: SF-539 CNS
M19-MEL melanoma = system: M19-MEL melanoma
KM12 colon = system: KM12 colon
ACHN renal = system: ACHN renal

Row | Compound | GI50 (LOX IMVI melanoma) | TGI (LOX IMVI melanoma) | GI50 (MDA-MB-231 breast) | TGI (MDA-MB-231 breast) | GI50 (U251 CNS) | TGI (U251 CNS) | GI50 (OVCAR-8 ovarian) | TGI (OVCAR-8 ovarian) | GI50 (SK-OV-3 ovarian) | TGI (SK-OV-3 ovarian) | GI50 (SNB-78 CNS) | TGI (SNB-78 CNS) | GI50 (SF-539 CNS) | TGI (SF-539 CNS) | GI50 (M19-MEL melanoma) | TGI (M19-MEL melanoma) | GI50 (KM12 colon) | TGI (KM12 colon) | GI50 (ACHN renal) | TGI (ACHN renal)
1 | CC(C)(CO)N=Cc1ccccc1[O-].CC(C)(CO)N=Cc1ccccc1[O-].[Co+2] | 40.5 µM | > 63.1 µM | > 74.9 µM | > 100 µM | 74.9 µM | > 100 µM | > 100 µM | > 100 µM | > 100 µM | > 100 µM | > 100 µM | > 100 µM | 66.5 µM | > 100 µM | > 73.8 µM | > 100 µM | > 97.8 µM | > 100 µM | > 81.4 µM | > 100 µM
2 | CC[C@@]1(O)C(=O)OCc2c1cc1n(c2=O)Cc2cc3c(N)cccc3nc2-1 | 0.00462 µM | 0.255 µM | – | > 19.9 µM | 0.00889 µM | 1.55 µM | 0.0403 µM | 2.51 µM | – | 1.68 µM | – | > 100 µM | 0.00511 µM | 0.0184 µM | – | 0.654 µM | 0.0151 µM | 11.6 µM | 0.00448 µM | 0.0501 µM
3 | Cc1ccc(/C=C2\CNC/C(=C\c3ccc(C)cc3)C2=O)cc1 | 0.403 µM | 1.49 µM and 2.11 µM | – | > 24.6 µM | 0.227 µM | 0.707 µM and 1.76 µM | 0.587 µM | 2.44 µM and 5.63 µM | 3.81 µM | 6.9 µM and 22.1 µM | – | > 100 µM | 1.53 µM | 5.04 µM and 19.5 µM | 2.1 µM | 2.98 µM and 5 µM | 0.399 µM | 1.55 µM and 3.32 µM | – | 3.81 µM and 5.93 µM
